From patent US9101679B2, “Sterilization method and apparatus” (TS03 Inc., priority 2009, dated 2015)
Entries after “also recorded” stand apart in the source; their conditions may differ. Read-outs that look alike come from different tables or passages of the source.

What was measured:
[1] = tested on: G. stearothermophilus ATCC 7953 spores; assay: Sterile efficacy on inoculated lumens, half-cycle of each TSO3 cycle; format: cell-based; settings: for sterility result in words, gas replacing ozone after hydrogen peroxide injection: all three cycles, gas injected after hydrogen peroxide
Description: The test evaluated the sterile efficacy on inoculated devices. Inoculated wires were inserted in tubing and afterwards in pouches. The pouches were also placed at the top of the loading carriage in the sterilization chamber.
The same loads were used for the three series of tests performed: ozone, oxygen and nitric oxide. The length, diameter, material and type of tubing were different for each cycle and are described in Table 3. The inoculated lumens were placed in a special load representing an average load for the three cycles.
The lumens used to evaluate the sterile efficacy were inoculated according to protocol MCB-09-A07 rev 9. The wire method was used. The wires were inoculated with 10 μL of a G. stearothermophilus ATCC 7953 spores suspension of 1.0×10^6 to 2.5×10^6 UFC/10 μL. The inoculated wires were left to dry overnight at normal room conditions.
Test loads were exposed to a half-cycle of each cycle. For the experiment with oxygen and nitrogen oxide, ozone was replaced by the gas to be tested. A burette was also plugged on the valve system in order to precisely determine the H2O2 injected volume.
The baseline of sterile efficacy on the inoculated lumens used in each cycle was established using only hydrogen peroxide. Cycles using hydrogen peroxide and ozone were performed to compare the efficacy of oxygen and nitrogen oxide to ozone.
The oxygen was injected in the chamber using the same system as that used for ozone. The ozone generator was turned off.
The NO was injected however directly in the chamber from an independent NO cylinder (Praxair). […] By doing so, the gas was forced into the chamber.
All tests were performed outside in order to limit possible dangers from accidental leaks. A NO detector was used. A long tube was plugged into the catalyst converter unit, to allow the NO to be eliminated far from the set-up. A calculation was performed (see below) to determine the number of valve injections necessary to obtain a concentration of 2 mg/L. • Valve volume: 3.3 mL (Volume calculated in R-1937) • NO Density NTP: 1.25 g/L • Sterilisation chamber volume: 125 L • Finale concentration desired: 2 mg/L • NO Pressure: 3 psig • Corrected volume: 3300×((14.7+3)/14.7)=3973.2 μL • Mass to be injected: 0.002 g/L×125 L=0.25 gno • Masse injected by each injection: 1.25 g/L×0.003974 L=4.9665×10^−3 g/injection • Number of injections required: 0.25 gno/4.9665×10^−3 g/injection=50 injections

spores [2] = settings: 3.4 mL per pulse; half-cycle of Cycle 1; Teflon 1 mm x 80 cm
Experimental: In order to inject a high volume at once, a valve separated by Teflon tubing was used instead of the normally used microvalve (TSO3 #: AM-213-001). The tubing length was determined by the volume to be injected. Since the volume contained in the valve is significant, two sizes of valves were used. The first type (TSO3 #: CM-900-157) with an orifice of 0.062″, was used for a volume up to 1.5 mL. The second Neptune type, with an orifice of 0.156″, (TSO3 #: CM-900-156), was used for a volume up to 3.5 mL. The larger valve size also helps to push the large liquid volume into the chamber. For the 35 μL volume, a Burket 7616 micropump (TSO3 #: CM-113-001) was used. For the 23 μL volume, a larger, specially-made block was used.
Two cycles were used for this experiment. To test the sterility, Cycle 1 (half-cycle) was used, where the injection step of the conditioning phase was modified with a variation in volume and pulse for each attempt, as previously described. As for the condensation effect, Cycle 3, consisting of four phases, was utilized. This cycle was chosen due to the fact that a greater quantity of hydrogen peroxide was injected for the cycle, making it the worst case scenario. […] After exposure to a half-cycle of Cycle 1, the sterility of each lumen was determined according to MCB-09-A04 rev. 7 by quantitative recovery using the ultrasound technique followed by filtration. […]

spores [3] = assay: Sterilization by evaporated hydrogen peroxide solution alone or followed by ozone; format: cell-based
Description: Indeed the evaporated hydrogen peroxide solution injected into the chamber is not sufficient to achieve sterilization, although a 4 log reduction in spores has been observed. […] Such complete sterilization could not be achieved using only the injection of evaporated hydrogen peroxide solution, independent of the amount of hydrogen peroxide solution used and the concentration of the solution. Moreover, high concentrations of hydrogen peroxide reduce compatibility with some instruments. […] In fact the dwelling time after hydrogen peroxide injection appears to have no effect on sterilization efficacy.

[4] = tested on: spores of G. stearothermophilus; assay: Estimate of spores inactivated by NO / NO2 alone; format: cell-based
Experimental: In this experiment, the amount of NO injected was 2 mg/L. Considering that all NO molecules were transformed in NO2, a D-value of 1.9 minutes for a concentration of 2 mg/L of NO2, only 2.5 log of spores would have been inactivated by the NO2. This less than the 6 log present on the inoculated devices. In reality, the conversion rate of NO in NO2 is probably not 100%, and the D-value is more than 1.9 minutes. Thus the number of spores inactivated by NO only is probably more around 1 log.

[5] = tested on: spores of G. stearothermophilus; settings: cited from earlier work

Question: Which results are given for `OO` [H2O2, hydrogen peroxide]?
Answer: Sterile lumens Cycle 1 ([1]; half-cycle of Cycle 1, Teflon lumen 1 mm x 80 cm, O3 or O2 2 mg/L, NO 2 mg/L): 50%; Sterile lumens Cycle 2 ([1]; half-cycle of Cycle 2, stainless steel lumen 1 mm x 50 cm, O3 or O2 10 mg/L, NO 2 mg/L): 12.5%; Sterile lumens Cycle 3 ([1]; half-cycle of Cycle 3, Teflon lumen 1 mm x 110 cm, O3 or O2 3 mg/L, NO 2 mg/L): 16%; spore count (spores [2]): zero; reduction in spores (spores [3]; evaporated hydrogen peroxide solution only, no ozone): 4 log

Question: With `[O]N=O` [NO2, nitrogen dioxide] as the molecule, how does the “spores inactivated by the NO2” value ([4]; assuming all NO (2 mg/L) transformed into NO2 and a D-value of 1.9 minutes) read?
Answer: 2.5 log

Question: And the D-value ([5]; 3 mg/L)?
Answer: approximately 1.9 minutes

Question: What about the D-value ([5]; 5.12 mg/L NO2) of the same molecule?
Answer: 0.3 min

Question: For `O=O` [oxygen], which “sterility result in words, gas replacing ozone after hydrogen peroxide injection” value [1] is on record?
Answer: ineffective to replace ozone; also recorded: Sterility was not achieved in two of the three cycles

Question: With `O=[O+][O-]` [ozone] as the molecule, how does the “sterilization result in words” value (spores [3]; 1-10 mg of ozone per liter of sterilization atmosphere added after evaporated hydrogen peroxide, SAL 10^-6) read?
Answer: full and complete sterilization

Question: Which results are given for Nitrogen monoxide?
Answer: spores inactivated by NO only ([4]; 2 mg/L NO, conversion to NO2 probably not 100%): around 1 log; sterility result in words, gas replacing ozone after hydrogen peroxide injection [1]: complete sterility in all three cycles
